Data reported in patent US8933099B2, “Monocyclic pyridine derivative” (Eisai R&D Management Co., Ltd., priority 2013, dated 2015).

Tests used:
Assay type in all cases: in vivo
Conditions in all cases: oral, once a day for 14 days, tumor volume last day
[1] = tested on: cell line RT112/84 xenograft; assay: Antitumor effect in RT112/84 subcutaneous xenograft model in mice
Source text: Human […] cancer cell line RT112/84 (ECACC Number EC85061106-F0), which had been cultured in an RPMI-1640 medium containing 10% […], and penicillin and streptomycin, were adjusted to a concentration of 1×10^8 cells/mL with Hanks' Balanced Salt Solution (GIBCO 1424020) to prepare a cell suspension, and the suspension was mixed with […] (BD Biosciences, Cat/354234) in a ratio of 1:1 to prepare a cell suspension in a concentration of 5×10^7 cells/ml. The cell suspension was inoculated in a volume of 100 μL into a subcutaneous part of a right flank of nude mice, 7 weeks of age (BALB/cAJcl-nu/nu, female, Clea Japan Inc.). Ten days after cell inoculation, the shortest diameter and the longest diameter of a tumor in each mouse were measured by using an electronic digital caliper (Digimatic™ caliper, Mitutoyo Corporation), so as to calculate the volume of the tumor in accordance with the following calculation formula: Tumor volume(mm^3)=Longest diameter(mm)×Shortest diameter(mm)×Shortest diameter(mm)/2 […]
With respect to each of the control group and test substance administration group, a ratio of the weight measured on the final day to the weight measured on the first day (relative body weight: RBW) was calculated. […]

[2] = tested on: human endometrial cancer cell line AN3CA xenograft; assay: Antitumor effect in AN3CA subcutaneous xenograft model in mice
Source text: (§1) Human endometrial cancer cell line AN3CA (ATCC Number HTB-111), which had been cultured in an RPM-1640 medium containing 10% FBS, and penicillin and streptomycin, were adjusted to a concentration of 1×10^8 cells/mL with Hanks' Balanced Salt Solution (GIBCO #24020) to prepare a cell suspension, and the suspension was mixed with […] (BD Biosciences, Cat#354234) in a ratio of 1:1 to prepare a cell suspension in a concentration of 5×10^7 cells/ml. The cell suspension was inoculated in a volume of 100 into a subcutaneous part of a right flank of nude mice, 7 weeks of age (BALB/cAJcl-nu/nu, female, Clea Japan Inc.). Eleven days after cell inoculation, the shortest diameter and the longest diameter of a tumor in each mouse were measured by using an electronic digital caliper (Digimatic™ caliper, Mitutoyo Corporation), so as to calculate the volume of the tumor in accordance with the following calculation formula: Tumor volume(mm^3)=Longest diameter(mm)×Shortest diameter(mm)×Shortest diameter(mm)/2
(§2) On the basis of the volumes of tumors obtained on the first day of administration, the nude mice were grouped such that averages of the tumor volumes were substantially equal among the groups. Each test substance was dissolved in DMSO, Tween 80 was added thereto to prepare a solution in a 10-fold concentration and the thus prepared solution was stored at the freezer before use. Immediately before the administration, the stock solution was diluted with a 5% glucose solution to obtain a final administration solution (in which a ratio in % among DMSO, Tween 80 and the 5% glucose solution was 3.5:6.5:90). Each evaluation sample was orally administered to test substance administration group at a volume of 0.4 mL per 20 g of body weight once a day continuously for 14 days, and in a control group, an administration solvent was orally administered under the same conditions. Incidentally, the experiment was conducted on groups each consisting of 5 mice.
(§3) With respect to each of the control group and test substance administration group, a ratio of the weight measured on the final day to the weight measured on the first day (relative body weight: RBW) was calculated. If a ratio of the RBW of the test substance administration group/the RBW of the control group is 0.9 or more, the corresponding test substance administration group was defined as a well-tolerated. In the test substance administration group thus defined as well-tolerated, a ratio of the tumor volume of the test substance-dosing group to the tumor volume of the control group obtained on the last day (T/C) (%) was calculated, and shown in Table 26.

[3] = tested on: human endometrial cancer cell line MFE296 xenograft; assay: Antitumor effect in MFE296 subcutaneous xenograft model in mice
Source text: as §1, with “MFE296 (DSMZ” for “AN3CA (ATCC”, “ACC-419),” for “HTB-111),”, “RPMI-1640” for “RPM-1640”, “The” for “The cell”, “100 μL” for “100”, “Twelve” for “Eleven”
as §2
as §3, with “(TIC)” for “(T/C)”, “27.” for “26.”

For `CNC(=O)n1ccc2cc(Oc3ccnc(NC(=O)c4ccc(C5CCN(CCO)CC5)cc4)c3)c(OCCOC)cc21` [Example 22, 5-((2-(4-(1-(2-Hydroxyethyl)piperidin-4-yl)benzamide)pyridin-4-yl)oxy)-6-(2-methoxyethoxy)-N-methyl-1H-indole-1-carboxamide], the “T/C (%)” value ([1]; 25 mg/kg) was 62%, the “T/C (%)” value ([1]; 50 mg/kg) was 33% and the “T/C (%)” value ([2]; 6.25 mg/kg) was 29%. For the same compound, the “T/C (%)” value ([2]; 12.5 mg/kg) was 11%, the “T/C (%)” value ([2]; 25 mg/kg) was 4% and the “T/C (%)” value ([2]; 50 mg/kg) was 2%. For the same compound, the “T/C (%)” value ([3]; 6.25 mg/kg) was 91%, the “T/C (%)” value ([3]; 12.5 mg/kg) was 85% and the “T/C (%)” value ([3]; 25 mg/kg) was 60%. The “T/C (%)” value ([3]; 50 mg/kg) was 54%.
